Experiments:
[1] = tested on: cabbage moth (Plutella xylostella); assay: Insecticidal test against cabbage moth (Test Example 1); type: in vivo; conditions: foliar, 144 h, read-out: insecticidal rate (rate of dead insects)
[2] = tested on: common cutworm (Spodoptera litura); assay: Insecticidal test against common cutworm (Test Example 2); type: in vivo; conditions: in Brassica oleracea, foliar, 144 h, read-out: insecticidal rate (rate of dead insects)
Procedure: A 10% emulsifiable concentrate (depending on the compounds, 10% wettable powder was applied for the test) of the compound of the present invention was diluted with water […] To the chemical solution was dipped leaves of cabbage for about 10 seconds, and after air-drying, they were placed in a laboratory dish, then 5-common cutworm (Spodoptera litura) in the stage of second instar larva per the dish were released therein, and the dish was covered with a lid and contained at a thermostat chamber at 25° C. […] Incidentally, the test was carried out with two districts.

Row | Compound | pest or weed control at 500 ppm [1] | pest or weed control at 10 ppm [1] | pest or weed control at 10 ppm [2] | pest or weed control at 100 ppm [1] | pest or weed control at 100 ppm [2]
1 | COC(=O)NC(=O)c1c(C)cc(C2=NOC(c3cc(Cl)cc(Cl)c3)(C(F)(F)F)C2)cc1I (stereo not drawn) [2-019, Methyl N-[4-[5-(3,5-dichlorophenyl)-5-trifluoromethyl-4,5-dihydroisoxazole-3-yl]-6-iodo-2-methylbenzoyl]carbamate] | ≥ 80% |  |  |  | 
2 | COC(=O)NC(=O)c1ccc(C2=NOC(c3cc(Cl)c(Cl)c(Cl)c3)(C(F)(F)F)C2)cc1C (stereo not drawn) [2-026, Methyl N-[2-methyl-4-[5-(3,4,5-trichlorophenyl)-5-trifluoromethyl-4,5-dihydroisoxazole-3-yl]benzoyl]carbamate] |  | ≥ 80% | ≥ 80% |  | 
3 | COC(=O)N(COCC(F)(F)F)C(=O)c1ccc(C2=NOC(c3cc(Cl)cc(Cl)c3)(C(F)(F)F)C2)cc1C (stereo not drawn) [3-032, Methyl N-[4-[5-(3,5-dichlorophenyl)-5-trifluoromethyl-4,5-dihydro-isoxazole-3-yl]-2-methylbenzoyl]-N-(2,2,2-trifluoroethoxymethyl)carbamate] |  | ≥ 80% | ≥ 80% |  | 
4 | COC(=O)N(C(=O)c1ccc(C2=NOC(c3cc(Cl)cc(Cl)c3)(C(F)(F)F)C2)cc1C)C1CCCO1 (stereo not drawn) [3-077, Methyl N-[4-[5-(3,5-dichlorophenyl)-5-trifluoromethyl-4,5-dihydro-isoxazole-3-yl]-2-methylbenzoyl]-N-(2-tetrahydrofuranyl)carbamate] |  | ≥ 80% | ≥ 80% |  | 
5 | Cc1cc(C2=NOC(c3cc(Cl)cc(Cl)c3)(C(F)(F)F)C2)ccc1C(=O)NC(N)=O (stereo not drawn) [4-002, N-Carbamoyl-4-[5-(3,5-dichlorophenyl)-5-trifluoromethyl-4,5-dihydro-isoxazole-3-yl]-2-methyl benzoic acid amide] |  |  |  | ≥ 80% | ≥ 80%
6 | Cc1cc(C2=NOC(c3cc(Cl)cc(Cl)c3)(C(F)(F)F)C2)ccc1C(=O)N(C)C(N)=O (stereo not drawn) [4-003, N-Carbamoyl-4-[5-(3,5-dichlorophenyl)-5-trifluoromethyl-4,5-dihydroisoxazole-3-yl]-2-methyl-N-methyl benzoic acid amide] |  |  |  | ≥ 80% | ≥ 80%
7 | Cc1cc(C2=NOC(c3cc(Cl)cc(Cl)c3)(C(F)(F)F)C2)ccc1C(=O)N(C)C(=O)NC(=O)CCl (stereo not drawn) [4-006, N-Chloroacetyl-N′-[4-[5-(3,5-dichlorophenyl)-5-trifluoromethyl-4,5-dihydroisoxazole-3-yl]-2-methylbenzoyl]-N′-methyl urea] |  |  |  | ≥ 80% | ≥ 80%
8 | CCN(C(=O)NC(=O)c1ccc(C2=NOC(c3cc(Cl)cc(Cl)c3)(C(F)(F)F)C2)cc1C)C(=O)OC (stereo not drawn) [4-011, N-[4-[5-(3,5-dichlorophenyl)-5-trifluoromethyl-4,5-dihydro-isoxazole-3-yl]-2-methylbenzoyl]-N′-ethyl-N′-methoxycarbonyl urea] |  | ≥ 80% | ≥ 80% |  | 
9 | COC(=O)N(C(=O)c1ccc(C2=NOC(c3cc(Cl)cc(Cl)c3)(C(F)(F)F)C2)cc1C)c1ncccn1 (stereo not drawn) [5-014, Methyl N-[4-[5-(3,5-dichlorophenyl)-5-trifluoromethyl-4,5-dihydroisoxazole-3-yl]-2-methylbenzoyl]-N-(2-pyrimidinyl)carbamate] |  |  |  | ≥ 80% | ≥ 80%
10 | CC(=O)N(C(=O)c1ccc(C2=NOC(c3cc(Cl)cc(Cl)c3)(C(F)(F)F)C2)cc1C)n1cccn1 (stereo not drawn) [5-044, N-Acetyl-4-[5-(3,5-dichlorophenyl)-5-trifluoromethyl-4,5-dihydroisoxazole-3-yl]-2-methyl-N-(1-pyrazolyl)benzoic acid amide] |  |  |  | ≥ 80% | ≥ 80%
11 | COC(=O)N(C(=O)c1ccc(C2=NOC(c3cc(Cl)cc(Cl)c3)(C(F)(F)F)C2)cc1C)c1ccc(Cl)cn1 (stereo not drawn) [5-060, Methyl N-(5-chloro-2-pyridyl)-N-[4-[5-(3,5-dichlorophenyl)-5-trifluoromethyl-4,5-dihydro-isoxazole-3-yl]-2-methylbenzoyl]carbamate] |  |  |  | ≥ 80% | ≥ 80%
12 | COC(=O)N(C(=O)c1ccc(C2=NOC(c3cc(Cl)cc(Cl)c3)(C(F)(F)F)C2)cc1C)c1ccc(C#N)cn1 (stereo not drawn) [5-071, Methyl N-(5-cyano-2-pyridyl)-N-[4-[5-(3,5-dichlorophenyl)-5-trifluoromethyl-4,5-dihydro-isoxazole-3-yl]-2-methylbenzoyl]carbamate] |  | ≥ 80% | ≥ 80% |  | 
13 | CC(=O)N(C(=O)c1ccc(C2=NOC(c3cc(Cl)cc(Cl)c3)(C(F)(F)F)C2)cc1C)c1cccc(Cl)n1 (stereo not drawn) [5-073, N-Acetyl-N-(6-chloro-2-pyridyl)-4-[5-(3,5-dichlorophenyl)-5-trifluoromethyl-4,5-dihydroisoxazole-3-yl]-2-methyl benzoic acid amide] |  | ≥ 80% | ≥ 80% |  | 
14 | Cc1cc(C2=NOC(c3cc(Cl)cc(Cl)c3)(C(F)(F)F)C2)ccc1C(=O)N(C)c1cccc(Br)n1 (stereo not drawn) [5-075, N-(6-Bromo-2-pyridyl)-4-[5-(3,5-dichlorophenyl)-5-trifluoromethyl-4,5-dihydro-isoxazole-3-yl]-N-methyl-2-methyl benzoic acid amide] |  | ≥ 80% | ≥ 80% |  | 
15 | Cc1cc(C2=NOC(c3cc(Cl)cc(Cl)c3)(C(F)(F)F)C2)ccc1C(=O)N(C)c1cncnc1 (stereo not drawn) [5-164, 4-[5-(3,5-Dichlorophenyl)-5-trifluoromethyl-4,5-dihydroisoxazole-3-yl]-2-methyl-N-methyl-N-(5-pyrimidinyl)benzoic acid amide] |  | ≥ 80% | ≥ 80% |  | 
16 | COC(=O)N(C(=O)c1ccc(C2=NOC(c3cc(Cl)cc(Cl)c3)(C(F)(F)F)C2)cc1C)c1cncnc1 (stereo not drawn) [5-169, Methyl N-[4-[5-(3,5-dichlorophenyl)-5-trifluoromethyl-4,5-dihydro-isoxazole-3-yl]-2-methylbenzoyl]-N-(5-pyrimidinyl)carbamate] |  | ≥ 80% | ≥ 80% |  | 
17 | Cc1cc(C2=NOC(c3cc(Cl)cc(Cl)c3)(C(F)(F)F)C2)ccc1C(=O)N(C)c1ncc(C#N)cn1 (stereo not drawn) [5-171, N-(5-Cyano-2-pyrimidinyl)-4-[5-(3,5-dichlorophenyl)-5-trifluoromethyl-4,5-dihydroisoxazole-3-yl]-N-methyl-2-methyl benzoic acid amide] |  | ≥ 80% | ≥ 80% |  | 
18 | Cc1cc(C2=NOC(c3cc(Cl)cc(Cl)c3)(C(F)(F)F)C2)ccc1C(=O)N(C)C1(Cl)N=CC=CN1 (stereo not drawn) [5-172, N-(2-Chloro-2-pyrimidinyl)-4-[5-(3,5-dichlorophenyl)-5-trifluoromethyl-4,5-dihydro-isoxazole-3-yl]-N-methyl-2-methyl benzoic acid amide] | ≥ 80% |  | ≥ 80% |  | 
19 | CON=CNC(=O)c1ccc(C2=NOC(c3cc(Cl)cc(Cl)c3)(C(F)(F)F)C2)cc1CN(C)C (stereo not drawn) [6-032, 4-[5-(3,5-Dichlorophenyl)-5-trifluoromethyl-4,5-dihydroisoxazole-3-yl]-2-(dimethylaminomethyl)-N-(methoxyiminomethyl)benzoic acid amide] | ≥ 80% |  |  |  | 
